Patent publication US12486273B2 (Hoffmann-La Roche Inc., priority 2019, dated 2025)

How the values were obtained:
Type in all cases: cell-based
human TLR7 = human TLR7 (Homo sapiens (Human), UniProt Q9NYK1); test: HEK293-Blue-hTLR-7 cells assay; details: HEK293-Blue-hTLR7 cells, R848 stimulation, 20 hrs, SEAP reporter; read-out: HEK/hTLR7 IC50
From the text: HEK293-BLUE-hTLR-7 CELLS ASSAY:
(§1) A stable HEK293-Blue-hTLR-7 cell line was purchased from InvivoGen (Cat. #: hkb-htlr7, San Diego, California, USA). These cells were originally designed for studying the stimulation of human TLR7 by monitoring the activation of NF-κB. A SEAP (secreted embryonic alkaline phosphatase) reporter gene was placed under the control of the IFN-β minimal promoter fused to five NF-κB and AP-1-binding sites. The SEAP was induced by activating NF-κB and AP-1 via stimulating HEK-Blue hTLR7 cells with TLR7 ligands. Therefore the reporter expression was declined by TLR7 antagonist under the stimulation of a ligand, such as R848 (Resiquimod), for incubation of 20 hrs. The cell culture supernatant SEAP reporter activity was determined using QUANTI-Blue™ kit (Cat. #: rep-qb1, Invivogen, San Diego, Ca, USA) at a wavelength of 640 nm, a detection medium that turns purple or blue in the presence of alkaline phosphatase.
(§2) HEK293-Blue-hTLR7 cells were incubated at a density of 250,000˜450,000 cells/mL in a volume of 170 μL in a 96-well plate in Dulbecco's Modified Eagle's medium (DMEM) containing 4.5 g/L glucose, 50 U/mL penicillin, […], […], 2 mM L-glutamine, 10% (v/v) heat-inactivated fetal bovine serum with addition of 20 μL test compound in a serial dilution in the presence of final DMSO at 1% and 10 μL of 20 μM R848 in above DMEM, perform incubation under 37° C. in a CO2 incubator for 20 hrs. Then 20 μL of the supernatant from each well was incubated with 180 μL Quanti-blue substrate solution at 37° C. for 2 hrs and the absorbance was read at 620-655 nm using a spectrophotometer. The signaling pathway that TLR7 activation leads to downstream NF-κB activation has been widely accepted, and therefore similar reporter assay was modified for evaluating TLR7 antagonist.

human TLR8 = human TLR8 (Homo sapiens (Human), UniProt Q9NR97); test: HEK293-Blue-hTLR-8 cells assay; details: HEK293-Blue-hTLR8 cells, R848 stimulation, 20 hrs, SEAP reporter; read-out: HEK/hTLR8 IC50
Sequence of human TLR8 (Q9NR97 27-1041): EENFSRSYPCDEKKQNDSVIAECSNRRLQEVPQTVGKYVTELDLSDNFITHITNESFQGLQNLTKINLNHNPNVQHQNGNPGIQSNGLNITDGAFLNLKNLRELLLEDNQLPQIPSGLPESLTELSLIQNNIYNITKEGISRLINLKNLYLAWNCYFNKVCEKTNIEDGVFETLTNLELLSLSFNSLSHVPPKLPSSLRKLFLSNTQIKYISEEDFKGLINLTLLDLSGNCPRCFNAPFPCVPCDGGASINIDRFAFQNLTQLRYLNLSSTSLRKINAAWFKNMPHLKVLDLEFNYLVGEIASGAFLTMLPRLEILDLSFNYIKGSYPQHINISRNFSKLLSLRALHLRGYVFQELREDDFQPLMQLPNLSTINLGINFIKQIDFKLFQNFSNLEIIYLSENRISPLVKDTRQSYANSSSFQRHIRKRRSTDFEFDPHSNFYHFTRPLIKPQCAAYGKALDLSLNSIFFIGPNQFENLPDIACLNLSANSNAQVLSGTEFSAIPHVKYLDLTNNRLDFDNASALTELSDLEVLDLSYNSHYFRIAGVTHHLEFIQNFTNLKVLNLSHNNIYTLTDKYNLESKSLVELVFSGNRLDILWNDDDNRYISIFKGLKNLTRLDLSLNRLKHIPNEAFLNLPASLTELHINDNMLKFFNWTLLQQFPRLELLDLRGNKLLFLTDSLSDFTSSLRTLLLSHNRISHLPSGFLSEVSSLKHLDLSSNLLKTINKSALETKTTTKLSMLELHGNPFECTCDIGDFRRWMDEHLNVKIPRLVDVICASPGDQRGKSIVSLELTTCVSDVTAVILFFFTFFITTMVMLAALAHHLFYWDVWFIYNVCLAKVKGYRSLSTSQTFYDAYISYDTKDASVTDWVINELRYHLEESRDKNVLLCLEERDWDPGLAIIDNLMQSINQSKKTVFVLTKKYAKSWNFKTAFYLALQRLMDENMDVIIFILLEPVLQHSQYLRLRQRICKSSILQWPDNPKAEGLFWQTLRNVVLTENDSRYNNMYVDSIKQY
From the text: HEK293-Blue-hTLR-8 Cells Assay:
as §1, with “HEK293-Blue-hTLR-8” for “HEK293-Blue-hTLR-7”, “hkb-htlr8,” for “hkb-htlr7,”, “TLR8” for “TLR7”, “hTLR8” for “hTLR7”, “R848,” for “R848 (Resiquimod),”, “rep-Qb1,” for “rep-qb1,”
HEK293-Blue-hTLR8 cells were incubated at a density of 250,000-450,000 cells/mL in a volume of 170 μL in a 96-well plate in Dulbecco's Modified Eagle's medium (DMEM) containing 4.5 g/L glucose, 50 U/mL penicillin, […], […], 2 mM L-glutamine, 10% (v/v) heat-inactivated fetal bovine serum with addition of 20 μL test compound in a serial dilution in the presence of final DMSO at 1% and 10 μL of 60 μM R848 in above DMEM, perform incubation under 37° C. in a CO2 incubator for 20 hrs. Then 20 μL of the supernatant from each well was incubated with 180 μL Quanti-blue substrate solution at 37° C. for […] and the absorbance was read at 620˜655 nm using a spectrophotometer. The signaling pathway that TLR8 activation leads to downstream NF-κB activation has been widely accepted, and therefore similar reporter assay was modified for evaluating TLR8 antagonist.

human TLR9 = human TLR9 (Homo sapiens (Human), UniProt Q9NR96); test: HEK293-Blue-hTLR-9 cells assay; details: HEK293-Blue-hTLR9 cells, ODN2006 stimulation, 20 hrs, SEAP reporter; read-out: HEK/hTLR9 IC50
Sequence of human TLR9 (Q9NR96 26-1032): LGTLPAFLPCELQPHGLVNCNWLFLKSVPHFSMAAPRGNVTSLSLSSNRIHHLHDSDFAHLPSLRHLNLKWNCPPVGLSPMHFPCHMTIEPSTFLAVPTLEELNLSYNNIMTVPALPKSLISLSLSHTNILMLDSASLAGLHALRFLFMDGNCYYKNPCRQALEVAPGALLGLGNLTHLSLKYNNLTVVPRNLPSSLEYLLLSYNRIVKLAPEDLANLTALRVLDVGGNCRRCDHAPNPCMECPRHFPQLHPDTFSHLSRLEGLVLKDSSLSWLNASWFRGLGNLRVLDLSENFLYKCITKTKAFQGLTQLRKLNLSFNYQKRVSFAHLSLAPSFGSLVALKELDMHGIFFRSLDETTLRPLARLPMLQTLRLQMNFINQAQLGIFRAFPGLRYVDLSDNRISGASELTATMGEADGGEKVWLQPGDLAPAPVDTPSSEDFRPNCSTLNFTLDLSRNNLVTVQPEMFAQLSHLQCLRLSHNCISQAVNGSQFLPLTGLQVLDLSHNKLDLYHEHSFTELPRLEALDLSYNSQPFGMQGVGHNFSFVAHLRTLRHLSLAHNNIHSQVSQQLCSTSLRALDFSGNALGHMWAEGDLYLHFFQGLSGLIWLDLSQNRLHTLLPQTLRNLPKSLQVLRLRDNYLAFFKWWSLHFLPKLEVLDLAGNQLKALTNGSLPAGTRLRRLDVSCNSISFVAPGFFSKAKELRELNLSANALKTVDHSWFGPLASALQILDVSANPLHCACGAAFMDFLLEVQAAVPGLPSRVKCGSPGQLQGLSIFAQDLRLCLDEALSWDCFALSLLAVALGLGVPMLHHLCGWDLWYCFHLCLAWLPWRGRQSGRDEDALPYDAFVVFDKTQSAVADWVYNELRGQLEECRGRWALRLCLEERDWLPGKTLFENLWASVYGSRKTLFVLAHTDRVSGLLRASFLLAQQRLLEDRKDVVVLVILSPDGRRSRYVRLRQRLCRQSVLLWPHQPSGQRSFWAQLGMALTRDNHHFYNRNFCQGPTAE
From the text: HEK293-Blue-hTLR-9 Cells Assay:
A stable HEK293-Blue-hTLR-9 cell line was purchased from InvivoGen (Cat. #: hkb-htlr9, San Diego, California, USA). These cells were originally designed for studying the stimulation of human TLR9 by monitoring the activation of NF-κB. A SEAP (secreted embryonic alkaline phosphatase) reporter gene was placed under the control of the IFN-β minimal promoter fused to five NF-κB and AP-1-binding sites. The SEAP was induced by activating NF-κB and AP-via stimulating HEK-Blue hTLR9 cells with TLR9 ligands. Therefore the reporter expression was declined by TLR9 antagonist under the stimulation of a ligand, such as ODN2006 (Cat. #: tlrl-2006-1, Invivogen, San Diego, California, USA), for incubation of 20 hrs. The cell culture supernatant SEAP reporter activity was determined using QUANTI-Blue™ kit (Cat. #: rep-qb1, Invivogen, San Diego, California, USA) at a wavelength of 640 nm, a detection medium that turns purple or blue in the presence of alkaline phosphatase.
as §2, with “HEK293-Blue-hTLR9 cells” for “HEK293-Blue-hTLR7 cells”, “μM ODN2006” for “μM R848”, “2 h” for “2 hrs”, “that TLR9” for “that TLR7”, “evaluating TLR9” for “evaluating TLR7”

Sequence of human TLR7 (Q9NYK1 27-1049): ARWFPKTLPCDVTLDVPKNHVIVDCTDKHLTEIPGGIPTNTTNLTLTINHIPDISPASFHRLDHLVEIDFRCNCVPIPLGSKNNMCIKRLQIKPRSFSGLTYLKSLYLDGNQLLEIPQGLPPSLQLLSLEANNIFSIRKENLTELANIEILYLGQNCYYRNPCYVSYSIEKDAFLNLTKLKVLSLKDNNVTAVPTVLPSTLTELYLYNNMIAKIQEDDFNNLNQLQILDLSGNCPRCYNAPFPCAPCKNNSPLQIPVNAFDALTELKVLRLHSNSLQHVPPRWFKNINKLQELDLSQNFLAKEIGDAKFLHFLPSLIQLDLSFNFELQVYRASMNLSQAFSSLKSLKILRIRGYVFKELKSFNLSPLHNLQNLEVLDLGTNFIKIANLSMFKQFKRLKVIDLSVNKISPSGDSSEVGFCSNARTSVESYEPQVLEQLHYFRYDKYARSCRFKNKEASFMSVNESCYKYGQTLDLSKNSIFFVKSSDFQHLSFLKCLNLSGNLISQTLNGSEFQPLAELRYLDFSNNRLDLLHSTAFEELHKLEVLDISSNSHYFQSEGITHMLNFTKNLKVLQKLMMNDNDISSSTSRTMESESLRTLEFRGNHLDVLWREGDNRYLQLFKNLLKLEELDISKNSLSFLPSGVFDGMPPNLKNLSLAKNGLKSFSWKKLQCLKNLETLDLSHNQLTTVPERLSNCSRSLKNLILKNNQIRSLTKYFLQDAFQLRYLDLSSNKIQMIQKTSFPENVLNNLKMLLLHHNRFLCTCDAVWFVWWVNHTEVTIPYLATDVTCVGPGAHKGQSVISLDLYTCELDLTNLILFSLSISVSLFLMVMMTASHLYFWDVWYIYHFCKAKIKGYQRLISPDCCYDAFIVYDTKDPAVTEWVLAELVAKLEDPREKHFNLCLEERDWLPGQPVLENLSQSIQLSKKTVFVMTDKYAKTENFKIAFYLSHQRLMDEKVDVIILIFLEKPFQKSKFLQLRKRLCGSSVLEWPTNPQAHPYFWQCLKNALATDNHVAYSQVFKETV

Row | IC50 (human TLR7) | IC50 (human TLR8) | IC50 (human TLR9) | Structure (SMILES)
1 | 11.3 nM | 14.7 nM | 175 nM | [2H]c1ccc2c(N3C[C@@H]4C[C@H](N5CC(C)(N)C5)CN4[C@H](C)C3)ccc(C#N)c2n1 [Example 17, 5-[(4R,7S,8aS)-7-(3-amino-3-methyl-azetidin-1-yl)-4-methyl-3,4,6,7,8,8a-hexahydro-1H-pyrrolo[1,2-a]pyrazin-2-yl]-2-deuterio-quinoline-8-carbonitrile]
2 | 16.2 nM | 4 nM | 247 nM | C[C@@H]1CN(c2ccc(C#N)c3ncccc23)C[C@@H]2CC(Oc3ccc4c(n3)CCNC4)CN21 (stereo partly drawn) [Example 14, 5-[(4R,8aS)-4-methyl-7-(5,6,7,8-tetrahydro-1,6-naphthyridin-2-yloxy)-3,4,6,7,8,8a-hexahydro-1H-pyrrolo[1,2-a]pyrazin-2-yl]quinoline-8-carbonitrile]
3 | 14.9 nM | 8.2 nM | 49 nM | C[C@@H]1CN(c2ccc(C#N)c3ncccc23)C[C@@H]2CC(N3CCN(c4cc5c(cn4)CCNC5)CC3)CN21 (stereo in doubt) [Example 13, 5-[(4R,7R,8aS)-4-methyl-7-[4-(5,6,7,8-tetrahydro-2,6-naphthyridin-3-yl)piperazin-1-yl]-3,4,6,7,8,8a-hexahydro-1H-pyrrolo[1,2-a]pyrazin-2-yl]quinoline-8-carbonitrile]
4 | 45.1 nM | 17.2 nM | 108 nM | CO[C@@H]1CN(c2cc3c(cn2)CCN([C@H]2C[C@H]4CN(c5ccc(C#N)c6ncccc56)C[C@@H](C)N4C2)C3)C[C@H]1N [Example 12, 5-[(4R,7S,8aS)-7-[7-[(3R,4R)-3-amino-4-methoxy-pyrrolidin-1-yl]-3,4-dihydro-1H-2,6-naphthyridin-2-yl]-4-methyl-3,4,6,7,8,8a-hexahydro-1H-pyrrolo[1,2-a]pyrazin-2-yl]quinoline-8-carbonitrile]

The remaining lines, values behind:

Row | Structure (SMILES) | IC50 (human TLR7) | IC50 (human TLR8) | IC50 (human TLR9)
5 | C[C@@H]1CN(c2ccc(C#N)c3ncccc23)C[C@@H]2C[C@@H](Nc3ccc4c(n3)CN[C@@H]4C)CN21 [Example 7A, 5-[(4R,7R,8aS)-4-methyl-7-[[(5R)-5-methyl-6,7-dihydro-5H-pyrrolo[3,4-b]pyridin-2-yl]amino]-3,4,6,7,8,8a-hexahydro-1H-pyrrolo[1,2-a]pyrazin-2-yl]quinoline-8-carbonitrile] | 17.7 nM | 9 nM | 53.5 nM
6 | C[C@@H]1CN(c2ccc(C#N)c3ncccc23)C[C@@H]2C[C@@H](Nc3ccc4c(n3)CCN(C)C4)CN21 [Example 4, 5-[(4R,7R,8aS)-4-methyl-7-[(6-methyl-7,8-dihydro-5H-1,6-naphthyridin-2-yl)amino]-3,4,6,7,8,8a-hexahydro-1H-pyrrolo[1,2-a]pyrazin-2-yl]quinoline-8-carbonitrile] | 21.7 nM | 6.3 nM | 147 nM
7 | C[C@@H]1CN(c2ccc(C#N)c3ncccc23)C[C@@H]2C[C@@H](N(C)c3ccc4c(n3)CCNC4)CN21 [Example 5, 5-[(4R,7R,8aS)-4-methyl-7-[methyl(5,6,7,8-tetrahydro-1,6-naphthyridin-2-yl)amino]-3,4,6,7,8,8a-hexahydro-1H-pyrrolo[1,2-a]pyrazin-2-yl]quinoline-8-carbonitrile] | 16.9 nM | 2.9 nM | 78.1 nM
8 | C[C@@H]1CN(c2ccc(C#N)c3ncccc23)C[C@@H]2C[C@@H](Nc3ncc4c(n3)CCNC4)CN21 [Example 6, 5-[(4R,7R,8aS)-4-methyl-7-(5,6,7,8-tetrahydropyrido[4,3-d]pyrimidin-2-ylamino)-3,4,6,7,8,8a-hexahydro-1H-pyrrolo[1,2-a]pyrazin-2-yl]quinoline-8-carbonitrile] | 18.8 nM | 12.9 nM | 157 nM
9 | CO[C@@H]1CN(c2ccc3c(n2)CCN([C@H]2C[C@H]4CN(c5ccc(C#N)c6ncccc56)C[C@@H](C)N4C2)C3)C[C@H]1N [Example 11, 5-[(4R,7S,8aS)-7-[2-[(3R,4R)-3-amino-4-methoxy-pyrrolidin-1-yl]-7,8-dihydro-5H-1,6-naphthyridin-6-yl]-4-methyl-3,4,6,7,8,8a-hexahydro-1H-pyrrolo[1,2-a]pyrazin-2-yl]quinoline-8-carbonitrile] | 23.4 nM | 8.5 nM | 59.2 nM
10 | C[C@@H]1CN(c2ccc(C#N)c3ncccc23)C[C@@H]2C[C@H](N3CCc4cc(N5CCNCC5)ccc4C3)CN21 [Example 10, 5-[(4R,7S,8aS)-4-methyl-7-(6-piperazin-1-yl-3,4-dihydro-1H-isoquinolin-2-yl)-3,4,6,7,8,8a-hexahydro-1H-pyrrolo[1,2-a]pyrazin-2-yl]quinoline-8-carbonitrile] | 30.1 nM | 24.9 nM | 81.1 nM
11 | C[C@@H]1Cc2nc(N[C@@H]3C[C@H]4CN(c5ccc(C#N)c6ncccc56)C[C@@H](C)N4C3)ccc2CN1 [Example 8B, 5-[(4R,7R,8aS)-4-methyl-7-[[(7R)-7-methyl-5,6,7,8-tetrahydro-1,6-naphthyridin-2-yl]amino]-3,4,6,7,8,8a-hexahydro-1H-pyrrolo[1,2-a]pyrazin-2-yl]quinoline-8-carbonitrile] | 14.7 nM | 7.5 nM | 89.4 nM
12 | C[C@@H]1CN(c2ccc(C#N)c3ncccc23)C[C@@H]2C[C@@H](Nc3ccc4c(n3)C[C@H](C)NC4)CN21 [Example 8A, 5-[(4R,7R,8aS)-4-methyl-7-[[(7S)-7-methyl-5,6,7,8-tetrahydro-1,6-naphthyridin-2-yl]amino]-3,4,6,7,8,8a-hexahydro-1H-pyrrolo[1,2-a]pyrazin-2-yl]quinoline-8-carbonitrile] | 11.1 nM | 3.6 nM | 63.1 nM
